Literature values in patent US10702472B2, “Production method of edible sustained-release functional material and edible sustained-release functional material” (AOBAKASEI KABUSHIKI KAISHA, priority 2017, dated 2020).

Conditions: generally known value

In the case of `O=C[C@H](O)[C@@H](O)[C@H](O)[C@H](O)CO` [glucose], the collapse temperature is listed as −40 °C.
